Test results as given in publication PMC7893052, “Small molecule induces mitochondrial fusion for neuroprotection via targeting CK2 without affecting its conventional kinase activity” (Signal Transduction and Targeted Therapy, 2021).

Legend:
[1] = biological target: T1, casein kinase 2 α′ subunit (CK2α′) (Homo sapiens, UniProt P19784); assay: ITC ([…]); also SPR KD […], NanoDSF, CETSA, DARTS, pulldown, LC–MS/MS of covalently modified peptide; format: binding
T1 construct: gene CSNK2A2; human recombinant CK2α′ protein
T1 sequence (P19784 whole entry): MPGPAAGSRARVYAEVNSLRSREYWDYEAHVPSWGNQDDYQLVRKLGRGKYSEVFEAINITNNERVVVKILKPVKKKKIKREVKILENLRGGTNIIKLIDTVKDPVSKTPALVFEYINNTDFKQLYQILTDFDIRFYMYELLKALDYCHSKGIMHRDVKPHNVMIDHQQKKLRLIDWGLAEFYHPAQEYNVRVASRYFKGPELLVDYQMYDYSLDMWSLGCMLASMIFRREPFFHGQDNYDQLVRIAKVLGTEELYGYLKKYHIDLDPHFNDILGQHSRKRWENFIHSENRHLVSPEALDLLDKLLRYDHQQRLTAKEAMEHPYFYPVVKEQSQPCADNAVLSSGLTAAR

[2] = biological target: T2, casein kinase 2 α′ subunit (CK2α′) (Homo sapiens, UniProt P19784, R173A); assay: ITC; format: binding
T2 construct: gene CSNK2A2
T2 sequence (P19784 1-350 R173A): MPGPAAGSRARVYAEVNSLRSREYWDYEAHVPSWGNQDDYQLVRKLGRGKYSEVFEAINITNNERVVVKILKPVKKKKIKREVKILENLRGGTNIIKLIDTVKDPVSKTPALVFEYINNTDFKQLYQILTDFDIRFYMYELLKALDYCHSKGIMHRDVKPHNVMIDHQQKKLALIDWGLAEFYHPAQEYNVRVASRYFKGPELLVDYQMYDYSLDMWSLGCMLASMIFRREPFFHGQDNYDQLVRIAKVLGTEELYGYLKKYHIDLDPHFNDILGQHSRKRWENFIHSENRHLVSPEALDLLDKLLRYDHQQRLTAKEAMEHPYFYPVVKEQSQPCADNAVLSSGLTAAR

Kd [1]: 1060 nM
Kd [2]: 413 nM
SMILES: C[C@@H]1O[C@@H](O[C@@H]2[C@@H](O)[C@H](OCCc3ccc(O)c(O)c3)O[C@H](CO[C@@H]3O[C@H](CO)[C@@H](O)[C@H](O)[C@H]3O)[C@H]2OC(=O)/C=C/c2ccc(O)c(O)c2)[C@H](O)[C@H](O)[C@H]1O [ECH, echinacoside]
